Several values for one entry are separate records, joined by “and”; a condition that tells them apart may be missing. Identical values can stand only once.
Assays:
Assay type in all cases: cell-based
[1] = tested on: Staphylococcus epidermidis; assay: Platelet aggregation with ADP in the presence of pathogenic microbes, bacteria counting; conditions: 10 μM ADP
Protocol: Platelet aggregation in the presence of ADP comprised the following steps:
a cryobead of Staphylococcus epidermidis was introduced into a tube of 9 ml of tryptone soy broth and incubated at 37° C. for 18-24 hours;
onto 400 μl of platelet concentrate there was added 50 μl of the suspension of Staph. epidermidis and 50 μl of ADP;
(§1) the tubes were agitated manually for 5 minutes at ambient temperature;
500 μl of PBS buffer was added;
filtration was performed on a filter with a porosity of 5 μm;
dilutions were made in series of 1/20 and 1/10 and 1/10;
100 μl of the sample was filtered on a CB04 membrane;
labeling with an esterase was performed; and
The pathogenic microbes were seeded at a high concentration to augment a possible trapping effect. ADP was added to the platelets and the bacteria at a concentration of […].

[2] = tested on: platelets (platelet concentrate PC 6); assay: Platelet aggregation with thrombin, counting of residual platelets after 11 μm filtration; conditions: 10 IU thrombin per test, PC 6, 5 minutes, 11 μm filter
Protocol: Thrombin is a strong agonist of platelet aggregation. Thrombin solutions (reference T8885 Sigma) were prepared at a concentration of 100 IU/ml when used at the rate of 10 IU/test and in diluted solution form (100 μl of thrombin mother solution with the addition of 900 μl of PBS buffer) when used at the rate of 1 IU/test.
Platelet aggregation by the intermediary of thrombin comprised:
placing 160 μl of platelet concentrate in a tube to which was added 20 μl of PBS buffer and 20 μl of thrombin;
as §1
800 μl of PBS buffer was added to the tubes;
the content of the tubes was filtered on a filter with a porosity of 11 μm;
dilutions were created in series 1/20 to 1/10 from the filtrates;
[…] of each dilution of the filtrate on a CB04 membrane were filtered;
an esterase labeling was performed; and
the platelets possibly retained on the membrane were counted.

E. coli = assay: Platelet aggregation with thrombin in the presence of pathogenic microbes, bacteria counting; conditions: for Counting results (E. coli): PC 6, 11 μm filter
Protocol: The experimental studies performed to evaluate the aggregation of pathogenic microbes in the presence of thrombin comprised the following steps:
a cryobead of E. coli was introduced into a tube of 9 ml of tryptone soy broth and incubated at 37° C. for 18-24 hours;
160 μl of platelet concentrate was added to 20 μl of the E. coli suspension and 20 μl of thrombin;
the tube was agitated manually for 5 minutes at ambient temperature;
800 μl of PBS buffer was added;
filtration was performed through a filter of 11 μm porosity;
dilutions in series were performed: 1/20 and 1/10 and 1/10;
filtration was performed on 100 μl of sample on a CB04 membrane;
labeling with esterase was performed; and […]

Compound	bacteria recovered after the aggregation step ([1]; PC 6)	Concentration bacteria/ml ([1]; PC 6, 5 μm filter)	Results (bacteria count) ([1]; PC 6, 5 μm filter)	platelet count after aggregation and filtration [2]	Counting results (E. coli) (E. coli; 1 IU thrombin)	Counting results (E. coli) (E. coli; 10 IU thrombin)	clot formation after addition (E. coli; platelet concentrate with E. coli)
Nc1ncnc2c1ncn2[C@@H]1O[C@H](COP(=O)(O)OP(=O)(O)O)[C@@H](O)[C@H]1O [ADP]	74%	4.7E+07 bacteria/ml	492 and 441				
Thrombin				44 and 30	140 and 167	109 and 122	A clot appeared almost instantly

Reference: patent publication US8822211B2, “Device and method for concentrating and detecting pathogenic microbes from blood products and/or their derivatives” (Becton Dickinson Infusion Therapy Systems Inc., priority 2001, dated 2014)
